# Test results reported in patent US7626082B2, “Flowering induction” (Agriculture Victoria Services Pty Ltd., priority 2003, dated 2009).
# How the values were obtained:
# Format in all cases: in vivo
# [1] = test system: Arabidopsis plants containing the pHTOP::FT inducible construct; assay: Time to flowering of arabidopsis plants sprayed with DEX inducer; parameters: time to flowering: unit not given here
# [2] = test system: transgenic arabidopsis plants carrying both the pHTOP-FT construct and the LhG4-GR construct; assay: Transgenic arabidopsis grown in the presence of DEX: flowering and GUS staining
# Protocol: (A) A plant grown on a 30 μM MS-DEX plate; (B) No DEX control; (C) and (D) GUS staining of leaves from induced plants; (E) GUS staining of a leaf from a non-induced LhGr/pHtop-FT plant; GUS staining of a leaf from a Col wild type plant.
# The arabidopsis FT cDNA was inserted into the pHTOP vector system to facilitate inducible expression of the gene using heterologous transcription factor system LhG4^19,27.
# This inducible system allows for simultaneous expression of two genes from the same reporter construct. In the experiment described here the GUS gene was used as a second gene in addition to FT.
# FT gene = FT gene induction levels in sprayed transgenic arabidopsis plants (real-time RT-PCR); details: for fold gene induction: short day conditions
# Protocol: Total RNA was converted to cDNA using standard protocols using 1-5 ug of RNA as measured by OD260.
# Quantitative RT-PCR was performed in the BioRad iCycler instrument using standard protocols and SyberGreen as reporting dye
# Actin gene levels were assayed using oligonucleotides GTF037 (Seq ID. No. 28) 5′[…]3′ and GTF038 (Seq ID No. 29) 5′[…]3′, and served as standards to normalize measurements of other genes.
# To create a copy number calibration curve for individual genes, standards were made up from corresponding PCR products, measuring their concentration using gel serial dilution methods and spectrophotometry. Standard copy numbers were varied from 1 to 10^8 with 10× increments.
# Amplifications were performed in triplicates, error rates were estimated by adding the average variance between triplicate samples, and average error of the standard curve fit of the standards of both the gene of interest and of the actin standard.
# We have also measured the FT gene induction levels in the sprayed transgenic arabidopsis plants compared with the non-sprayed or non-transgenic controls in plants grown in short day conditions, the results are summarized in the table below:
# The methodology we used to measure the gene induction levels was essentially the same as described elsewhere in the patent, except that we used the arabidopsis gene-specific primers NIK13 5′[…]3′ (SEQ ID NO: 34) and NIK14 5′[…]3′ (SEQ ID NO: 35).
compound,measurement,setting,value
"C[C@@H]1C[C@H]2[C@@H]3CCC4=CC(=O)C=C[C@]4(C)[C@@]3(F)[C@@H](O)C[C@]2(C)[C@@]1(O)C(=O)CO [DEX, dexmethasone]",time to flowering,"[1]; LhG4-mGR driver, line S7, sprayed twice 30 μM, unit not in table (b146 speaks of days)",20
same,emergence of inflorescences,"[1]; pHTOP::FT plants sprayed with 30 mM DEX, 6 days after spraying (FIG. 12)",inflorescences have emerged
same,time to flowering,"[1]; pHTOP::FT, line COF3-12, sprayed twice 30 nM",20
same,time to flowering,"[1]; pHTOP::FT, line COF3-12, sprayed twice 1 μM",20
same,time to flowering,"[1]; pHTOP::FT, line COF3-12, sprayed twice 30 μM",16.5
same,time to flowering,"[1]; pHTOP::FT, line COF7-30, sprayed twice 30 nM",20
same,time to flowering,"[1]; pHTOP::FT, line COF7-30, sprayed twice 1 μM",19
same,time to flowering,"[1]; pHTOP::FT, line COF7-30, sprayed twice 30 μM",14.86
same,reduction of time to flowering,"[1]; spraying with 30 mM inducer, compared to non-transgenic or non-sprayed plants",up to 6 days
same,time to flowering,"[1]; wild type, line Col, sprayed twice 30 μM",20
same,flowering,"[2]; pHTOP-FT + LhG4-GR plants grown in the presence of DEX (30 μM MS-DEX plate, FIG. 5)",accelerated flowering
same,GUS staining (reporter gene activity),[2]; pHTOP-FT + LhG4-GR plants grown in the presence of DEX (FIG. 5),GUS staining
same,induction in the cDNA level as assayed in real-time RT-PCR,FT gene; 1 mM spray of inducer,lesser induction
same,fold gene induction,"FT gene; LhG4-mGR driver plants, sprayed twice 30 μM",1x
same,fold gene induction,"FT gene; pHTOP::FT plants, sprayed twice 30 nM",1x
same,fold gene induction,"FT gene; pHTOP::FT plants, sprayed twice 1 μM",20x
same,fold gene induction,"FT gene; pHTOP::FT plants, sprayed twice 30 μM",120x
same,induction in the cDNA level as assayed in real-time RT-PCR,FT gene; plants 3 days after treatment with high level of the DEX inducer,> 100 fold
same,fold gene induction,"FT gene; wild type plants, sprayed twice 30 μM",1x
